Reference: ChEMBL document CHEMBL3621041, “Optimization of a Novel Binding Motif to (E)-3-(3,5-Difluoro-4-((1R,3R)-2-(2-fluoro-2-methylpropyl)-3-methyl-2,3,4,9-tetrahydro-1H-pyrido[3,4-b]indol-1-yl)phenyl)acrylic Acid (AZD9496), a Potent and Orally Bioavailable Selective Estrogen Receptor Downregulator and Antagonist” (J Med Chem, 2015)
Converted amounts (≈) assume the structure as drawn. The source made the active and inactive calls. The calls are words filed in the database; no cut-off is given here.

Columns and labels:
[1] = molecular target: T1, Glucocorticoid receptor (Homo sapiens, UniProt P04150); assay: Binding affinity to glucocorticoid receptor (unknown origin); details: read-out: IC50
T1 sequence (P04150 whole entry): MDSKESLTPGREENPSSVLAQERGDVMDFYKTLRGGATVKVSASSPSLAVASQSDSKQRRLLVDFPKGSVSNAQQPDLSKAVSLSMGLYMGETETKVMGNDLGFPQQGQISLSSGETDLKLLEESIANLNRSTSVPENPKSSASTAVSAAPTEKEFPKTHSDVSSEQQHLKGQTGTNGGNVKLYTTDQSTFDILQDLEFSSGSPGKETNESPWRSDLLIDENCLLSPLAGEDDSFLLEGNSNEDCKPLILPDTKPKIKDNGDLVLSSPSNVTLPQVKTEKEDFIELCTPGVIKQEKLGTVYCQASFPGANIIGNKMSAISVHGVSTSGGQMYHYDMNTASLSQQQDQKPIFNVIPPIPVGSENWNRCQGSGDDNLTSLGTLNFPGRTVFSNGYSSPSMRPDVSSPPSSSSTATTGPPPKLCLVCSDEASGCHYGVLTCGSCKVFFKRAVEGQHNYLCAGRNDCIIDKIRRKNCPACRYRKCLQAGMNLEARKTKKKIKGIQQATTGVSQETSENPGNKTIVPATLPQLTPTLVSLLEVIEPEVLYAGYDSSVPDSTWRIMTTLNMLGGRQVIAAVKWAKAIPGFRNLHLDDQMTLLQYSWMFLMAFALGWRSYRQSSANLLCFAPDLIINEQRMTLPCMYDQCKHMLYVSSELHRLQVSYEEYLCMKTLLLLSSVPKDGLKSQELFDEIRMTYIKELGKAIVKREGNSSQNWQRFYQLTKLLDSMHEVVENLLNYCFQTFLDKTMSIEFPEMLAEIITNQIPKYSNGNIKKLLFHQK

[2] = Clearance in Alderley Park beagle dog at 2.5 umol/kg, iv and 5 umol/kg, po; type: ADME, organism-based, Canis lupus familiaris; details: in vivo
[3] = Clearance in Han Wistar rat at 2.2 umol/kg, iv and […] umol/kg, po; type: ADME, organism-based; details: in vivo
[4] = Thermodynamic solubility of the compound in 0.1 M phosphate buffer at pH 7.4 after 24 hrs; type: physicochemical; details: read-out: Therm_solubility
[5] = Lipophilicity, log D of the compound at pH 7.4; type: physicochemical; details: buffer
[6] = Clearance in SCID mouse at 2.3 umol/kg, iv and 5.6 umol/kg, po; type: ADME, organism-based; details: in vivo
[7] = system: MCF7; assay: Antitumor activity against human MCF7 cells xenografted in mouse assessed as tumor regression at 5 mg/kg, po qd; type: functional, organism-based
[8] = Volume of distribution at steady state in Alderley Park beagle dog at 2.5 umol/kg, iv and 5 umol/kg, po; type: ADME, organism-based, Canis lupus familiaris; details: in vivo, read-out: Vdss
[9] = Fraction unbound in human 10% plasma by equilibrium dialysis; type: ADME, cell-free
[10] = Volume of distribution at steady state in Han Wistar rat at 2.2 umol/kg, iv and 4.5 umol/kg, po; type: ADME, organism-based; details: in vivo, read-out: Vdss
[11] = Intrinsic clearance in human cryopreserved hepatocytes assessed per 10^6 cells; type: ADME, cell-based, Hepatocyte; details: read-out: CLH
[12] = Oral bioavailability in Han Wistar rat at 4.5 umol/kg; type: ADME, organism-based; details: in vivo
[13] = Oral bioavailability in Alderley Park beagle dog at 5 umol/kg; type: ADME, organism-based, Canis lupus familiaris; details: in vivo
[14] = molecular target: T2, Androgen receptor (Homo sapiens, UniProt P10275); assay: Binding affinity to androgen receptor (unknown origin); details: read-out: IC50
T2 sequence (P10275 whole entry): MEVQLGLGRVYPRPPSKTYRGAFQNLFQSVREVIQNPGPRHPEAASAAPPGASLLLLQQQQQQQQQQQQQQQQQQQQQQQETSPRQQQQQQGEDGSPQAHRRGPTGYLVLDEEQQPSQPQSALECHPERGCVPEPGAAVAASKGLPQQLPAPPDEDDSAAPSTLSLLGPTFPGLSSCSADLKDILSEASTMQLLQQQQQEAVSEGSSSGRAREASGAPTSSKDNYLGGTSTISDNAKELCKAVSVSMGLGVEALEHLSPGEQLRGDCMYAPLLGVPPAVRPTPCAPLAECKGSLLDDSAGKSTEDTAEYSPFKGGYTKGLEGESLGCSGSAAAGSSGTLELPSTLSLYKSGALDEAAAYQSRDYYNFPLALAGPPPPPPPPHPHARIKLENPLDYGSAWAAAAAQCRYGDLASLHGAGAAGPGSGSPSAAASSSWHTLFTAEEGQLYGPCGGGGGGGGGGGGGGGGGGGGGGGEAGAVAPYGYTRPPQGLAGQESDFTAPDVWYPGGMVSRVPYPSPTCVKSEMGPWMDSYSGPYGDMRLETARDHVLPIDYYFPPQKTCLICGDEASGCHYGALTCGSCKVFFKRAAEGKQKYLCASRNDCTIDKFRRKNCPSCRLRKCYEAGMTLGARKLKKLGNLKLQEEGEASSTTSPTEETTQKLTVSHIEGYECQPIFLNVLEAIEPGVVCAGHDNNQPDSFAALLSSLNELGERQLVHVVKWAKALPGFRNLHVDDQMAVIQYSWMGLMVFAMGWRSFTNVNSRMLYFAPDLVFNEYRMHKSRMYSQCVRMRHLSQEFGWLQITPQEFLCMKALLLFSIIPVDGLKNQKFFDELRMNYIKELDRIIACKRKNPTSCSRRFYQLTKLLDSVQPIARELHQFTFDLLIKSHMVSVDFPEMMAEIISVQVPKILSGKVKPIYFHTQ

[15] = system: MCF7; assay: Antitumor activity against human MCF7 cells xenografted in mouse assessed as tumor growth inhibition administered orally daily once; type: functional
[16] = Intrinsic clearance in rat cryopreserved hepatocytes assessed per 10^6 cells; type: ADME, cell-based, Hepatocyte; details: read-out: CLH
[17] = Fraction unbound in Han Wistar rat 10% plasma by equilibrium dialysis; type: ADME, cell-free
[18] = Oral bioavailability in SCID mouse at 5.6 umol/kg; type: ADME, organism-based; details: in vivo
[19] = system: MCF7; assay: cells; details: Homo sapiens, MCF7, read-out: pIC50 (converted)
Description: Antiproliferative activity against human MCF7 cells

[20] = Volume of distribution at steady state in SCID mouse at 2.3 umol/kg, iv and 5.6 umol/kg, po; type: ADME, organism-based; details: in vivo, read-out: Vdss
[21] = Volume of distribution at steady state in CD1 mouse at 5 umol/kg, iv and 13 umol/kg, po; type: ADME, organism-based; details: in vivo, read-out: Vdss
[22] = Oral bioavailability in CD1 mouse at 13 umol/kg; type: ADME, organism-based; details: in vivo
[23] = molecular target: T3, Estrogen receptor (Homo sapiens, UniProt P03372)
T3 sequence (P03372 whole entry): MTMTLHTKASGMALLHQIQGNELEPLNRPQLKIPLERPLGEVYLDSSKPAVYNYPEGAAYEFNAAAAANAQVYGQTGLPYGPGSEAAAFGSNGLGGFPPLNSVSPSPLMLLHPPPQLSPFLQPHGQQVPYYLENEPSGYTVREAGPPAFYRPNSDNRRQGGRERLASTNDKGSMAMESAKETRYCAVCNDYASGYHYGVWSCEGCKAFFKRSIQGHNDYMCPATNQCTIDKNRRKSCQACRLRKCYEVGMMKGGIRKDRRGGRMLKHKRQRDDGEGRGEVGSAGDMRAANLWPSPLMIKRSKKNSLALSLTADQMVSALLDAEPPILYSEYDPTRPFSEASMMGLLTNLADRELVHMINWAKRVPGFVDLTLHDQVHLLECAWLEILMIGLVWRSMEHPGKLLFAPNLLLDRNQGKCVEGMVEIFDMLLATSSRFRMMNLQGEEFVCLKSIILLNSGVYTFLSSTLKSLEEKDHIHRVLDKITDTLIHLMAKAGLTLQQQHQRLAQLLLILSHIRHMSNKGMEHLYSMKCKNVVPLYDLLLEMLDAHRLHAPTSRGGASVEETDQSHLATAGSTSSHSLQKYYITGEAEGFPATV
Description: Binding affinity to ERalpha receptor (unknown origin)

[24] = Volume of distribution at steady state in Han Wistar rat at 5 umol/kg, iv and 13 umol/kg, po; type: ADME, organism-based; details: in vivo, read-out: Vdss
[25] = Oral bioavailability in Han Wistar rat at 13 umol/kg; type: ADME, organism-based; details: in vivo
[26] = Clearance in CD1 mouse at 5 umol/kg, iv and 13 umol/kg, po; type: ADME, organism-based; details: in vivo
[27] = molecular target: T3, Estrogen receptor; remark: listed apart in the source
Description: Antagonist activity at ERalpha receptor in human MCF7 cells

[28] = molecular target: T4, Progesterone receptor (Homo sapiens, UniProt P06401); assay: Agonist activity at progesterone receptor in human MCF7 cells; type: cell-based
T4 sequence (P06401 whole entry): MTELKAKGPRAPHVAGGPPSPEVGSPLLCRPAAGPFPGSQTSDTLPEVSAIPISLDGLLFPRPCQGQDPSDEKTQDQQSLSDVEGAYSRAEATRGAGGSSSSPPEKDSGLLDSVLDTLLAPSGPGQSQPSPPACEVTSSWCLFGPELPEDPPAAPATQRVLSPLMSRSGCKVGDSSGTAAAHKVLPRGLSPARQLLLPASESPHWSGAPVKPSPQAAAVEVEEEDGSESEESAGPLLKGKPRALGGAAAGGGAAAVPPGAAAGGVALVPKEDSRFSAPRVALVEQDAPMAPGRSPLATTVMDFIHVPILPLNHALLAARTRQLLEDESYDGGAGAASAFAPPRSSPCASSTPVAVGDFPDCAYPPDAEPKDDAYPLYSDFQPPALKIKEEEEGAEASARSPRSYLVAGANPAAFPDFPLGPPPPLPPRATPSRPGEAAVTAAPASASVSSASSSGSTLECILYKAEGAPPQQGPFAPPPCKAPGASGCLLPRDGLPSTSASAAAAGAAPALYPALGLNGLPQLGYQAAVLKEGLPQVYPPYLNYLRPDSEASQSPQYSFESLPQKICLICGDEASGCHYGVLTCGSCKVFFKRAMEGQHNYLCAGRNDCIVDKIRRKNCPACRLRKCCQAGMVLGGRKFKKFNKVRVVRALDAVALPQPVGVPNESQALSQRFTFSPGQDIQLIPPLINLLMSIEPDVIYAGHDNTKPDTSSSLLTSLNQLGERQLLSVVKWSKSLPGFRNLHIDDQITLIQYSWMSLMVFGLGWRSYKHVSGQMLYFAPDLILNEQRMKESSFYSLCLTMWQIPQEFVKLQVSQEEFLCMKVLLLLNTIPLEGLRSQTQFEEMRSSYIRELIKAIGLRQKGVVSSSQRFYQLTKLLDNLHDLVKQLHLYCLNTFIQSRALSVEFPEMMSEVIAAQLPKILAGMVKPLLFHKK

[29] = Clearance in Han Wistar rat at 5 umol/kg, iv and 13 umol/kg, po; type: ADME, organism-based; details: in vivo

Compound	clearance [2] [mL/min/kg]	solubility thermodynamic at 24 h [4] [µM]	logD [5]	Vd [8] [L/kg]	fraction unbound [9]	hepatocyte CLint [11] [µL/min/1e6 cells]	bioavailability [13] [%]	hepatocyte CLint [16] [µL/min/1e6 cells]	fraction unbound [17]	IC50 [19] [nM]	further results
C[C@@H]1Cc2c([nH]c3ccccc23)[C@@H](c2c(F)cc(/C=C/C(=O)O)cc2F)N1CC(C)(C)F [AZD-9496]	0.28	110 (≈ 48.7 µg/mL)	2.8	2.2	0.0026	32	79	4.2	0.0037	0.0398	IC50 [1]: 9200 nM; clearance [3]: 1 mL/min/kg; clearance [6]: 43 mL/min/kg; Activity [7]: Active; Vd [10]: 0.43 L/kg; bioavailability [12]: 63%; IC50 [14]: 30000 nM; growth inhibition (GI) [15]: Dose-dependent effect; bioavailability [18]: 128%; Vd [20]: 2.2 L/kg
CC(C)CN1[C@H](c2ccc(/C=C/C(=O)O)cc2)c2[nH]c3ccccc3c2C[C@H]1C	0.96	> 1000	2.6	0.3	0.0051	40	111	18	0.0069	0.776	Vd [21]: 3.7 L/kg; bioavailability [22]: 86%; IC50 [23]: 6.46 nM; Vd [24]: 1.1 L/kg; bioavailability [25]: 80%; clearance [26]: 21 mL/min/kg; IC50 [27]: 2.09 nM; IC50 [28]: > 100000 nM; clearance [29]: 6.2 mL/min/kg
